# Experimental data taken from patent publication US20260293937A1, “SHRIMP FEED AND METHODS OF USE THEREOF” (Organicin Scientific, Inc., priority 2023, published 2026).
# “And” between values parts separate entries of the source, which are not always exact repeats. Equal values may be shown once. No end group written: not given here.
# Experiments:
# [1] = system: Vibrio parahaemolyticus (strain 13-028A/3); assay: AHPND immersion challenge, feed-and-survival assay in shrimp; assay type: in vivo, Penaeus (Litopenaeus) vannamei; settings: for Group Survival: positive control 35%; for % Survival: per tank; for Survivors: per tank of 20 shrimp
# Description: This Example describes the materials, methods, and results of a feed-and-survival assay in shrimp treated with a composition of the disclosure, including the bacteriocin Nisin and shrimp feed.
# Specific Pathogen Free (SPF) P. vannamei at an average weight of 1 g to 2 g, were obtained from a commercial shrimp producer and reared. A total of 300 shrimp were transferred into 15 90 L glass aquaria, each aquarium stocked with 20 shrimp.
# Shrimp feed diets was prepared at X, 10X, and 100X (0.84 mg/g, 8.4 mg/g, and 84 mg/g Nisin, respectively) estimated concentrations of the bacteriocin Nisin. The bacteriocin additive was combined with a 40% protein commercial shrimp premix (Rangen Inc., Buhl, Idaho), carboxymethyl cellulose at a 3% inclusion rate, and up to 40% w/v water. Exemplary components of a typical 35% protein shrimp diet were wheat flour (35%), soybean meal (20%) and fishmeal (25%). The mixture was then cold-extruded through a meat grinder to produce a 3 mm diameter size pellet strand. The resulting feed strands were dried overnight at 40° C. and broken into appropriately-sized pellets. A total of 100 g of each diet was use for this study. In all three experimental groups a minimum of 9.324 g of Nisin was used to produce the respective feed conditions.
# The negative and positive control tanks were fed Rangen's commercially pelleted shrimp diet without additive.
# The commercially prepared shrimp diet from juvenile Penaeus (Litopenaeus) vannameia was prepared with a bacteriocin additive at three concentrations (0.84 mg/g, 8.4 mg/g, and 84 mg/g Nisin). Experimental shrimp were orally exposed for […] Vibrio parahaemolyticus, an agent which causes Acute Hepatopancreatic Necrosis Disease (AHPND) to determine if the feed additives (provided during and after exposure) would affect survival when compared to the group that was fed an untreated diet.
# All tanks were covered to reduce the risk of mortality due to shrimp jumping out. Each group of tanks was outfitted with its own equipment (e.g., nets and buckets). Each tank contained sufficient aeration and was outfitted with a pre-conditioned biological filter. Water quality tests to characterize temperature, nitrite and total ammonia were performed on tanks weekly.
# Nine tanks (three per Nisin concentration) were used to house shrimp that were fed the bacteriocin-containing diet, while three tanks were used to house shrimp fed the control diet without additive. In both cases, the shrimp were fed their respective diet, followed by the AHPND challenge. The challenge was provided on 7 days at 5% of body weight per tank. Three additional tanks were used as a negative control for environmental conditions and were used to house shrimp fed the control diet and not challenged with AHPND. Additionally, the negative control tanks were be fed before the AHPND challenged tanks to reduce the risk of cross contamination.
# Each tank scheduled for the AHPND challenge was subjected to an immersion challenge. Tryptic Soy Broth +2% (TSB+) sodium chloride was inoculated with a consistently virulent strain of Vibrio parahaemolyticus (strain 13-028A/3), incubated for 18 hours, and added directly into each challenge tank. The bacterial suspension was added into each tank to achieve the bacterial density measured by optical density absorbance (OD600 nm) at approximately […].
# Two animals were preserved in Davidson's AFA fixative prior to the start of the study to document the SPF health status of the population by histology.
# All tanks were checked twice a day for dead or moribund animals. During the study, any mortalities were removed from the tank and frozen at −20° C. Up to two moribund animals from each diet group, including the positive control tanks, were preserved in Davidson's AFA fixative and processed for routine histology to confirm an AHPND infection (up to 12 P. vannamei processed for histology during the challenge period). […]
# [2] = system: brine shrimp (Artemia salina); assay: Brine shrimp toxicity of Nisin formulations (Example 4); assay type: in vivo; settings: Nisin in citric acid buffer solution, reduced pH; data not shown
# Description: This Example describes the efficacy of various Nisins: Nisin Z, Nisin A, and ImmuCell Nisin A. This experiment assessed the safety and antimicrobial efficacy of various Nisin formulations in treating Vibrio parahaemolyticus infections, a common pathogen in aquaculture environments. Brine shrimp (Artemia salina) were utilized as a model organism to simulate potential impacts on Pacific whiteleg shrimp (Penaeus vannamei).
# Nisin variants (Nisin A, Nisin Z, and ImmuCell Nisin A) were dissolved in either citric acid buffer (CAB, pH 3.4) for Nisin A or dH2O for Nisin Z to make a stock solution of 4.86 mg/mL. Serial dilutions were performed to achieve the different concentrations (4.86 mg/mL to 0.005 mg/mL) for the experiments.
# Artemia salina eggs were hatched in artificial seawater (Instant Ocean) under controlled conditions. Newly hatched brine shrimp were then exposed to varying concentrations of each Nisin solution in experimental tanks. A separate set of tanks was used for each type of Nisin formulation.
# Control tanks (treated with either CAB or saline water) were prepared to observe the natural behavior and survival rate of Artemia salina without Nisin exposure.
# Brine shrimp were divided into different tanks for exposure to varying concentrations (2.43 mg/mL, 0.608 mg/mL, 0.152 mg/mL, and 0.038 mg/mL) of Nisin A, Nisin Z, and ImmuCell Nisin A.
# Mortality and behavior of the brine shrimp were recorded at 24 and 48 hours post-exposure. For the antimicrobial tests, the diameter of inhibition zones on agar plates containing the laboratory control strains were measured and recorded.
substance,measurement,setting,value
"Nisin: Nisin (Immucell; 99% pure) in Example 1; bacteriocin Nisin in shrimp feed at 0.84, 8.4 and 84 mg/g in Example 2 (ITSISLCTPGCKTGALMGCNMKTATCHCSIHVSK; cysteine pairing not given here; also: lantibiotic, modifications not placed; UniProt P13068 24-57, looked up)",cumulative survival vs positive control group,[1]; 0.84 mg/g Nisin in feed,statistically significant difference in cumulative survival
same,deaths pre-challenge,[1]; 0.84 mg/g Nisin in feed,4
same,increase in relative survival of AHPND-challenged shrimp,"[1]; 0.84 mg/g Nisin in feed vs positive controls, statistically significant",265%
same,survival of AHPND-challenged shrimp,"[1]; 0.84 mg/g Nisin in feed, pre-challenge deaths excluded, positive controls 35%",100%
same,survival rate vs positive controls,[1]; 8.4 mg/g Nisin in feed,significantly higher than the positive controls
same,deaths,[1]; 84 mg/g Nisin in feed,not a single death
same,survival vs positive controls,[1]; 84 mg/g Nisin in feed,statistically significant as compared to the positive controls
same,Mortalities by Day,"[1]; 1X (0.84 mg/g Nisin in feed), day 0, per tank",0
same,Mortalities by Day,"[1]; 1X (0.84 mg/g Nisin in feed), day 2, per tank",0
same,Mortalities by Day,"[1]; 1X (0.84 mg/g Nisin in feed), day 3, per tank",0
same,Mortalities by Day,"[1]; 1X (0.84 mg/g Nisin in feed), day 4, per tank",0
same,Mortalities by Day,"[1]; 1X (0.84 mg/g Nisin in feed), day 5, per tank",0
same,Mortalities by Day,"[1]; 1X (0.84 mg/g Nisin in feed), day 6, per tank",0
same,Mortalities by Day,"[1]; 1X (0.84 mg/g Nisin in feed), day 7, per tank",0
same,Mortalities by Day,"[1]; 1X (0.84 mg/g Nisin in feed), day 8, per tank",0
same,Mortalities by Day,"[1]; 1X (0.84 mg/g Nisin in feed), day 9, per tank",0
same,Mortalities by Day,"[1]; 1X (0.84 mg/g Nisin in feed), day 10, per tank",0
same,Mortalities by Day,"[1]; 1X (0.84 mg/g Nisin in feed), day 11, per tank",0
same,Mortalities by Day,"[1]; 1X (0.84 mg/g Nisin in feed), day 12, per tank",0
same,Mortalities by Day,"[1]; 1X (0.84 mg/g Nisin in feed), day 13, per tank",0
same,Mortalities by Day,"[1]; 1X (0.84 mg/g Nisin in feed), day 14, per tank",0
same,Mortalities by Day,"[1]; 1X (0.84 mg/g Nisin in feed), day 15, per tank",0
same,Mortalities by Day,"[1]; 1X (0.84 mg/g Nisin in feed), day 16, per tank",0
same,Group Survival,"[1]; 1X (0.84 mg/g Nisin in feed), overall",93%
same,% Survival,[1]; 1X (0.84 mg/g Nisin in feed),95% and 90%
same,Survivors,[1]; 1X (0.84 mg/g Nisin in feed),19 and 18
same,Mortalities by Day,"[1]; 10X (8.4 mg/g Nisin in feed), day 0, per tank",0
same,Mortalities by Day,"[1]; 10X (8.4 mg/g Nisin in feed), day 1, per tank",0
same,Mortalities by Day,"[1]; 10X (8.4 mg/g Nisin in feed), day 2, per tank",0
same,Mortalities by Day,"[1]; 10X (8.4 mg/g Nisin in feed), day 3, per tank",0
same,Mortalities by Day,"[1]; 10X (8.4 mg/g Nisin in feed), day 4, per tank",0
same,Mortalities by Day,"[1]; 10X (8.4 mg/g Nisin in feed), day 5, per tank",0
same,Mortalities by Day,"[1]; 10X (8.4 mg/g Nisin in feed), day 6, per tank",0
same,Mortalities by Day,"[1]; 10X (8.4 mg/g Nisin in feed), day 7, per tank",0
same,Mortalities by Day,"[1]; 10X (8.4 mg/g Nisin in feed), day 13, per tank",0
same,Mortalities by Day,"[1]; 10X (8.4 mg/g Nisin in feed), day 14, per tank",0
same,Mortalities by Day,"[1]; 10X (8.4 mg/g Nisin in feed), day 15, per tank",0
same,Mortalities by Day,"[1]; 10X (8.4 mg/g Nisin in feed), day 16, per tank",0
same,% Survival,[1]; 10X (8.4 mg/g Nisin in feed),85% and 75% and 45%
same,Survivors,[1]; 10X (8.4 mg/g Nisin in feed),17 and 15 and 9
same,Group Survival,[1]; 10X (8.4 mg/g Nisin in feed),68%
same,Mortalities by Day,"[1]; 100X (84 mg/g Nisin in feed), day 0, per tank",0
same,Mortalities by Day,"[1]; 100X (84 mg/g Nisin in feed), day 1, per tank",0
same,Mortalities by Day,"[1]; 100X (84 mg/g Nisin in feed), day 2, per tank",0
same,Mortalities by Day,"[1]; 100X (84 mg/g Nisin in feed), day 3, per tank",0
same,Mortalities by Day,"[1]; 100X (84 mg/g Nisin in feed), day 4, per tank",0
same,Mortalities by Day,"[1]; 100X (84 mg/g Nisin in feed), day 5, per tank",0
same,Mortalities by Day,"[1]; 100X (84 mg/g Nisin in feed), day 6, per tank",0
same,Mortalities by Day,"[1]; 100X (84 mg/g Nisin in feed), day 7, per tank",0
same,Mortalities by Day,"[1]; 100X (84 mg/g Nisin in feed), day 8, per tank",0
same,Mortalities by Day,"[1]; 100X (84 mg/g Nisin in feed), day 9, per tank",0
same,Mortalities by Day,"[1]; 100X (84 mg/g Nisin in feed), day 10, per tank",0
same,Mortalities by Day,"[1]; 100X (84 mg/g Nisin in feed), day 11, per tank",0
same,Mortalities by Day,"[1]; 100X (84 mg/g Nisin in feed), day 12, per tank",0
same,Mortalities by Day,"[1]; 100X (84 mg/g Nisin in feed), day 13, per tank",0
same,Mortalities by Day,"[1]; 100X (84 mg/g Nisin in feed), day 14, per tank",0
same,Mortalities by Day,"[1]; 100X (84 mg/g Nisin in feed), day 15, per tank",0
same,Mortalities by Day,"[1]; 100X (84 mg/g Nisin in feed), day 16, per tank",0
same,% Survival,[1]; 100X (84 mg/g Nisin in feed),100%
same,Survivors,[1]; 100X (84 mg/g Nisin in feed),20
same,Group Survival,[1]; 100X (84 mg/g Nisin in feed),100%
same,shrimp survival,"[1]; Nisin and shrimp feed, dose as low as 0.84 mg/g",significant increase in shrimp survival
same,cause of mortality in toxicity trials,[2],mortality that is not related to the peptide Nisin itself
